From ChEMBL document CHEMBL1155491, “Acylurea connected straight chain hydroxamates as novel histone deacetylase inhibitors: Synthesis, SAR, and in vivo antitumor activity” (Bioorg Med Chem Lett, 2010)
Converted amounts (≈) assume the structure as drawn. The source made the active and inactive calls. The calls are words filed in the database; no cut-off is given here.

Tests used:
Histone deacetylase 1 [1] = target: T1, Histone deacetylase 1 (Homo sapiens, UniProt Q13547)
Histone deacetylase 1 [2] = target: T1, Histone deacetylase 1; remark: listed apart in the source
[3] = Solubility at pH 7; assay type: physicochemical; settings: buffer
[4] = Thermodynamic solubility at pH 7.4; assay type: physicochemical; settings: buffer, read-out: Therm_solubility
[5] = Half life in human liver microsome; assay type: ADME; settings: liver microsomes
[6] = Half life in rat liver microsome; assay type: ADME; settings: liver microsomes
[7] = Half life in mouse liver microsome; assay type: ADME; settings: liver microsomes
[8] = Octanol-water distribution coefficient, log D of the compound; assay type: physicochemical
[9] = Apparent permeability from apical to basolateral side of Caco-2 cells; assay type: ADME, cell-based; settings: human
[10] = Clearance in mouse at 10 mg/kg, iv; assay type: ADME, organism-based; set-up: dose 10 mg/kg, route intravenous; settings: in vivo
[11] = Volume of distribution at steady state in mouse at 10 mg/kg, iv; assay type: ADME, organism-based; set-up: dose 10 mg/kg, route intravenous; settings: in vivo, read-out: Vdss
[12] = Elimination half life in mouse at 10 mg/kg, iv; assay type: ADME, organism-based; set-up: dose 10 mg/kg, route intravenous; settings: in vivo, read-out: beta t1/2 (converted)
[13] = Toxicity in human PC3 cells xenografted nude mouse; assay type: organism-based, PC-3; settings: in vivo
HCT-116 [14] = experiment: Antitumor activity against human HCT116 cells xenografted in BALB/c mouse at 200 mg/kg, po after 21 days; assay type: functional, organism-based; set-up: dose 200 mg/kg
[15] = Oral bioavailability in mouse at 50 mg/kg, po; settings: in vivo
Histone deacetylase 8 = target: T2, Histone deacetylase 8 (Homo sapiens, UniProt Q9BY41); experiment: Inhibition of HDAC8
T2 sequence (Q9BY41 whole entry): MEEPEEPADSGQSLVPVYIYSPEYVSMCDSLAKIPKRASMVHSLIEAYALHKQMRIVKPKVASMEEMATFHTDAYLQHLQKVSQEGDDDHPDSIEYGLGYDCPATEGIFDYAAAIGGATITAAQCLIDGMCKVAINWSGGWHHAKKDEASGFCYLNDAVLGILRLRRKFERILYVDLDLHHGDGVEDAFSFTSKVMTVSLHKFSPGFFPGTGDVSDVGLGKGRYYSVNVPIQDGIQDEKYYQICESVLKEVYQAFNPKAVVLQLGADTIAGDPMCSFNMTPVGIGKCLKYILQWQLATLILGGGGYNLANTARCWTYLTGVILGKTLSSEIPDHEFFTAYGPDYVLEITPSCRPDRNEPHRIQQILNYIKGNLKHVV

HCT-116 [16] = experiment: Antiproliferative activity against human HCT116 cells; assay type: functional, cell-based
A2780 = experiment: Antiproliferative activity against human A2780 cells; assay type: functional, cell-based
PC-3 = experiment: Antiproliferative activity against human PC3 cells; assay type: functional, cell-based
Histone deacetylase 1 [17] = target: T1, Histone deacetylase 1; experiment: Inhibition of HDAC1 in human COLO205 cells assessed as induction of histone H3 acetylation at 10 uM by Western-immuno blotting; assay type: cell-based; settings: COLO 205

T1 sequence (Q13547 whole entry): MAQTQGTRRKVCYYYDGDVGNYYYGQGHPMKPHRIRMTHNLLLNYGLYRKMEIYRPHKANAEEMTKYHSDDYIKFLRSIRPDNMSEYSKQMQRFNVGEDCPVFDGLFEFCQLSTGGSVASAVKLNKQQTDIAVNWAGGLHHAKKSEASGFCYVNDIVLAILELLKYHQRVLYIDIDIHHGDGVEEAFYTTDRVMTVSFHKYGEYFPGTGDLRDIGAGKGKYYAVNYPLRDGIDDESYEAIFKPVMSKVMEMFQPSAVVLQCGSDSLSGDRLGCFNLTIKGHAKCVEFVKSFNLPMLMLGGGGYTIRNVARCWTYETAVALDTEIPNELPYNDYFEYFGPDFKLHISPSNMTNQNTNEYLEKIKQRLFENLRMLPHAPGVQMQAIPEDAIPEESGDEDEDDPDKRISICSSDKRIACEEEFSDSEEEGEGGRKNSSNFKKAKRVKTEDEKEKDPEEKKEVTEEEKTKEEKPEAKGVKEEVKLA

With `O=C(CCCCCNC(=O)NC(=O)c1cccc(Br)c1)NO` the IC50 (Histone deacetylase 1 [1]) was 60 nM and the IC50 (Histone deacetylase 1 [2]) was 3150 nM.

With `O=C(CCCCCNC(=O)NC(=O)c1ccc(N2CCCC2)c([N+](=O)[O-])c1)NO` the IC50 (Histone deacetylase 1 [1]) was 20 nM and the IC50 (Histone deacetylase 1 [2]) was 3450 nM.

`O=C(CCCCCNC(=O)NC(=O)c1cccc([N+](=O)[O-])c1)NO` showed an IC50 (Histone deacetylase 1 [1]) of 92 nM and an IC50 (Histone deacetylase 1 [2]) of 2800 nM.

`CCN(CC)CCn1cnc2cc(C(=O)NC(=O)NCCCCCC(=O)NO)ccc21` gave an IC50 (Histone deacetylase 1 [1]) of 21 nM and an IC50 (Histone deacetylase 1 [2]) of 5100 nM.

Molecule `O=C(CCCCCCN(Cc1ccccn1)C(=O)NC(=O)c1ccccc1)NO` has an IC50 (Histone deacetylase 1 [1]) of 555 nM and an IC50 (Histone deacetylase 1 [2]) of 9060 nM.

In the case of `O=C(CCCCCCC(=O)Nc1ccccc1)NO` [VORINOSTAT], the solubility [3] is reported as greater than 250 µM, the solubility thermodynamic [4] is reported as 166 µg/mL (≈ 628 µM) and the half-life [5] is reported as greater than 60 min. It also gave a half-life [6] greater than 30 min, a half-life [7] greater than 30 min and a logD [8] of 1.04. It also gave a Papp A→B [9] of 1.7 ×10⁻⁶ cm/s, a clearance [10] of 112 mL/min/kg and a Vd [11] of 0.81 L/kg. For the same molecule, the half-life [12] was 22.8 min, the MTD [13] was 160 mg/kg and the Activity (HCT-116 [14]) was “Active”. The bioavailability [15] was 8.3%.

In the case of `O=C(CCCCCNC(=O)NC(=O)c1ccc2c(c1)ncn2CCCc1ccccc1)NO`, the IC50 (Histone deacetylase 1 [1]) is reported as 20 nM and the IC50 (Histone deacetylase 1 [2]) is reported as 3750 nM.

With `O=C(CCCCCN(CCCc1ccccc1)C(=O)NC(=O)c1ccccc1)NO` the IC50 (Histone deacetylase 8) was 328 nM and the IC50 (Histone deacetylase 1 [1]) was 392 nM.

`O=C(CCCCCNC(=O)NC(=O)c1ccc(Cl)cc1)NO` gave an IC50 (Histone deacetylase 1 [1]) of 26 nM and an IC50 (Histone deacetylase 1 [2]) of 1600 nM.

`O=C(CCCCCNC(=O)NC(=O)c1ccc(NS(=O)(=O)c2ccccc2)cc1)NO` showed an IC50 (Histone deacetylase 1 [1]) of 97 nM and an IC50 (Histone deacetylase 1 [2]) greater than 100000 nM.

Molecule `CCCCc1nc2cc(C(=O)NC(=O)NCCCCCC(=O)NO)ccc2n1CCN1CCCC1` has an IC50 (HCT-116 [16]) of 3520 nM, an IC50 (A2780) of 1350 nM and an IC50 (PC-3) of 1250 nM. The solubility [3] was greater than 211 µM, the half-life [5] was greater than 30 min and the Activity (Histone deacetylase 1 [17]) was “Active”. The IC50 (Histone deacetylase 1 [1]) was 22 nM and the IC50 (Histone deacetylase 1 [2]) was 2910 nM.

`O=C(CCCCCNC(=O)NC(=O)c1ccc(N2CCCCC2)c([N+](=O)[O-])c1)NO` showed an IC50 (Histone deacetylase 1 [1]) of 46 nM and an IC50 (Histone deacetylase 1 [2]) of 3250 nM.

With `O=C(CCCCCCN(Cc1ccccc1)C(=O)NC(=O)c1ccccc1)NO` the IC50 (Histone deacetylase 1 [1]) was 1600 nM.

`CC(C)(C)c1ccc(C(=O)NC(=O)NCCCCCC(=O)NO)cc1` gave an IC50 (Histone deacetylase 1 [1]) of 24 nM and an IC50 (Histone deacetylase 1 [2]) of 2350 nM.

In the case of `O=C(CCCCCNC(=O)NC(=O)c1ccc([N+](=O)[O-])cc1)NO`, the Activity (Histone deacetylase 1 [17]) is reported as “Active”, the IC50 (Histone deacetylase 1 [1]) is reported as 45 nM and the IC50 (Histone deacetylase 1 [2]) is reported as 2310 nM.

For `CN(C)CCn1cnc2cc(C(=O)NC(=O)NCCCCCC(=O)NO)ccc21`, the IC50 (Histone deacetylase 1 [1]) was 49 nM and the IC50 (Histone deacetylase 1 [2]) was 19500 nM.

`O=C(CCCCCNC(=O)NC(=O)c1ccc(N2CCOCC2)c([N+](=O)[O-])c1)NO` showed an IC50 (Histone deacetylase 1 [1]) of 55 nM and an IC50 (Histone deacetylase 1 [2]) of 12000 nM.

With `CN(C)CC(C)(C)Cn1cnc2cc(C(=O)NC(=O)NCCCCCC(=O)NO)ccc21` the IC50 (Histone deacetylase 1 [1]) was 20 nM and the IC50 (Histone deacetylase 1 [2]) was 3700 nM.

In the case of `O=C(CCCCCCNC(=O)NC(=O)c1ccccc1)NO`, the Activity (Histone deacetylase 1 [17]) is reported as “Active”, the IC50 (Histone deacetylase 1 [1]) is reported as 145 nM and the IC50 (Histone deacetylase 1 [2]) is reported as 2680 nM.

In the case of `O=C(CCCCCNC(=O)NC(=O)c1ccc(NC(=O)Cc2ccccc2)cc1)NO`, the solubility [3] is reported as 28 µM (≈ 11.9 µg/mL), the Activity (Histone deacetylase 1 [17]) is reported as “Active” and the IC50 (Histone deacetylase 1 [1]) is reported as 44 nM. For the same molecule, the IC50 (Histone deacetylase 1 [2]) was 13200 nM.

`O=C(CCCCCN(Cc1ccccn1)C(=O)NC(=O)c1ccccc1)NO` showed an IC50 (Histone deacetylase 1 [1]) of 245 nM and an IC50 (Histone deacetylase 1 [2]) of 14700 nM.

For `CN1CCN(c2ccc(C(=O)NC(=O)NCCCCCC(=O)NO)cc2[N+](=O)[O-])CC1`, the IC50 (Histone deacetylase 1 [1]) was 43 nM and the IC50 (Histone deacetylase 1 [2]) was 11500 nM.

With `O=C(CCCCCNC(=O)NC(=O)c1ccc(-c2cncnc2)cc1)NO` the solubility [3] was 17 µM (≈ 6.31 µg/mL), the half-life [5] was greater than 30 min and the Activity (Histone deacetylase 1 [17]) was “Active”. For the same molecule, the IC50 (Histone deacetylase 1 [1]) was 26 nM and the IC50 (Histone deacetylase 1 [2]) was 10000 nM.

With `O=C(CCCCCCCNC(=O)NC(=O)c1ccccc1)NO` the IC50 (Histone deacetylase 8) was 405 nM and the IC50 (Histone deacetylase 1 [2]) was 8280 nM.

With `O=C(CCCCCNC(=O)NC(=O)c1ccc2ccccc2c1)NO` the IC50 (Histone deacetylase 1 [1]) was 6 nM and the IC50 (Histone deacetylase 1 [2]) was 2150 nM.

With `O=C(CCCCCN(Cc1ccccc1)C(=O)NC(=O)c1ccccc1)NO` the Activity (Histone deacetylase 1 [17]) was “Active”, the IC50 (Histone deacetylase 1 [1]) was 355 nM and the IC50 (Histone deacetylase 1 [2]) was 3190 nM.

In the case of `O=C(CCCCCNC(=O)NC(=O)c1ccc(I)cc1)NO`, the IC50 (Histone deacetylase 1 [1]) is reported as 8 nM and the IC50 (Histone deacetylase 1 [2]) is reported as 870 nM.

`O=C(CCCCCNC(=O)NC(=O)c1ccc2c(c1)ncn2CCc1ccccc1)NO` gave an IC50 (Histone deacetylase 1 [1]) of 25 nM and an IC50 (Histone deacetylase 1 [2]) of 9700 nM.

Work on `O=C(CCCCCNC(=O)NC(=O)c1ccc(NCCN2CCCC2)c([N+](=O)[O-])c1)NO` yielded an IC50 (HCT-116 [16]) of 1330 nM, an IC50 (A2780) of 990 nM and an IC50 (PC-3) of 920 nM. The solubility [3] was greater than 205 µM, the half-life [5] was greater than 30 min and the Activity (Histone deacetylase 1 [17]) was “Active”. For the same molecule, the IC50 (Histone deacetylase 1 [1]) was 22 nM and the IC50 (Histone deacetylase 1 [2]) was 2420 nM.

`O=C(CCCNC(=O)NC(=O)c1ccccc1)NO` showed an IC50 (Histone deacetylase 8) greater than 10000 nM and an IC50 (Histone deacetylase 1 [1]) greater than 10000 nM.

In the case of `CCN(CC)CCNc1ccc(C(=O)NC(=O)NCCCCCC(=O)NO)cc1[N+](=O)[O-]`, the IC50 (Histone deacetylase 1 [1]) is reported as 20 nM and the IC50 (Histone deacetylase 1 [2]) is reported as 1700 nM.

For `O=C(CCCCCNC(=O)NC(=O)c1ccc2c(c1)nc(CCc1ccccc1)n2CCN1CCCC1)NO`, the solubility [3] was greater than 250 µM, the half-life [5] was 21 min and the Activity (Histone deacetylase 1 [17]) was “Active”. It also gave an IC50 (Histone deacetylase 1 [1]) of 34 nM and an IC50 (Histone deacetylase 1 [2]) of 5380 nM.

In the case of `Nc1cc(C(=O)NC(=O)NCCCCCC(=O)NO)ccc1Cl`, the IC50 (Histone deacetylase 1 [1]) is reported as 11 nM and the IC50 (Histone deacetylase 1 [2]) is reported as 1250 nM.

`O=C(CCCCCNC(=O)NC(=O)c1ccc(F)cc1)NO` gave an IC50 (Histone deacetylase 1 [1]) of 115 nM and an IC50 (Histone deacetylase 1 [2]) of 2550 nM.

With `O=C(CCCCCNC(=O)NC(=O)c1c(Cl)cccc1Cl)NO` the IC50 (Histone deacetylase 1 [1]) was 185 nM and the IC50 (Histone deacetylase 1 [2]) was 2950 nM.
